Laboratory results published in doi:10.1101/2020.07.01.182642v1 (biorxiv, 2020).
Each block holds one compound with its values, some of them ahead of it.

Experiments:
Conditions in all cases: binder
ZAK = ZAK (Homo sapiens, UniProt Q9NYL2)
PIM3 = PIM3 (Homo sapiens, UniProt Q86V86)
MYLK4 = biological target: T1, MYLK4 (Homo sapiens, UniProt Q86YV6)
T1 sequence (Q86YV6 1-388): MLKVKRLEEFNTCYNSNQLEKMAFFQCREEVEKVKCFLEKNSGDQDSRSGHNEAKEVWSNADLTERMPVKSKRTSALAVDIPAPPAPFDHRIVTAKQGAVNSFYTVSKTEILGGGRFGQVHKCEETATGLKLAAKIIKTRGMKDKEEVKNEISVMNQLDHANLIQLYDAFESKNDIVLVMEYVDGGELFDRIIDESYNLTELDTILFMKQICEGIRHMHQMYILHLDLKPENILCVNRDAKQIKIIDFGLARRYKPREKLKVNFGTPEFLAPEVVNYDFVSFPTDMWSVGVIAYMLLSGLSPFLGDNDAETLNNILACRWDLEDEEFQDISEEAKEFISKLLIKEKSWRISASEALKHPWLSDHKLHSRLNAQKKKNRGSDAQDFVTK

CHEK2 = CHEK2 (Homo sapiens, UniProt O96017)
STK17B = biological target: T2, STK17B (Homo sapiens, UniProt O94768)
T2 sequence (O94768 1-372): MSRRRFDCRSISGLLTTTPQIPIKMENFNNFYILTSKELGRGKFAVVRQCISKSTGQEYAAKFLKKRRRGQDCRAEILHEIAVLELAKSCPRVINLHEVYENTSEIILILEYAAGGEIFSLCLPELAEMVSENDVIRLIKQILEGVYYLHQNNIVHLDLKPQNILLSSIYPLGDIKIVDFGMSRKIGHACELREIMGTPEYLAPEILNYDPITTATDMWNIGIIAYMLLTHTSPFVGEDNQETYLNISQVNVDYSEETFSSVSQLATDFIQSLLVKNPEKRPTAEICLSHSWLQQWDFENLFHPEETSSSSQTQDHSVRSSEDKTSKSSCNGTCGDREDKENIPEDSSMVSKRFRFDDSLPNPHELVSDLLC

CSNK2A2 = CSNK2A2 (Homo sapiens, UniProt P19784)
FES = FES (Homo sapiens, UniProt P07332)
PAK7 = PAK7 (Homo sapiens, UniProt Q9P286)
MAPK8 = MAPK8 (Homo sapiens, UniProt P45983)
PKN1 = PKN1 (Homo sapiens, UniProt Q16512)
CSNK1G1 = CSNK1G1 (Homo sapiens, UniProt Q9HCP0)
STK39 = STK39 (Homo sapiens, UniProt Q9UEW8)
CAMK2A = CAMK2A (Homo sapiens, UniProt Q9UQM7)
CAMK1G = CAMK1G (Homo sapiens, UniProt Q96NX5)
CDKL1 = CDKL1 (Homo sapiens, UniProt Q00532)
PKMYT1 = biological target: T3, PKMYT1 (Homo sapiens, UniProt Q99640)
T3 sequence (Q99640 1-499): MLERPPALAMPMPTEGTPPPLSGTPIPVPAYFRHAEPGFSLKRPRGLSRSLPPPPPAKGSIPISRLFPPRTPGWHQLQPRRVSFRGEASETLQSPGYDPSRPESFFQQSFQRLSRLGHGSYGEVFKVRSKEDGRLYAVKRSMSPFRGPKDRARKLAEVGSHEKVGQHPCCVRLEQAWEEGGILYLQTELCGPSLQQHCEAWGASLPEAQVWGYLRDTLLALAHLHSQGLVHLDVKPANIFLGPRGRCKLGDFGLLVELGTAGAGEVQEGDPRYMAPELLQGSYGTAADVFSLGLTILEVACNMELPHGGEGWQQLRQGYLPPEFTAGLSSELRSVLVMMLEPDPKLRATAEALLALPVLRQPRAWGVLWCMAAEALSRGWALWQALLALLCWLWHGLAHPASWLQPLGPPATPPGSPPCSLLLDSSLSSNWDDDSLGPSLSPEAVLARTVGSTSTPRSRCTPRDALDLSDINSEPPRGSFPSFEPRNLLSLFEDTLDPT

MAPK9 = MAPK9 (Homo sapiens, UniProt P45984)
CSNK1G3 = CSNK1G3 (Homo sapiens, UniProt Q9Y6M4)
ACVR1B = ACVR1B (Homo sapiens, UniProt P36896)

CHEK2, sequence (O96017 whole entry): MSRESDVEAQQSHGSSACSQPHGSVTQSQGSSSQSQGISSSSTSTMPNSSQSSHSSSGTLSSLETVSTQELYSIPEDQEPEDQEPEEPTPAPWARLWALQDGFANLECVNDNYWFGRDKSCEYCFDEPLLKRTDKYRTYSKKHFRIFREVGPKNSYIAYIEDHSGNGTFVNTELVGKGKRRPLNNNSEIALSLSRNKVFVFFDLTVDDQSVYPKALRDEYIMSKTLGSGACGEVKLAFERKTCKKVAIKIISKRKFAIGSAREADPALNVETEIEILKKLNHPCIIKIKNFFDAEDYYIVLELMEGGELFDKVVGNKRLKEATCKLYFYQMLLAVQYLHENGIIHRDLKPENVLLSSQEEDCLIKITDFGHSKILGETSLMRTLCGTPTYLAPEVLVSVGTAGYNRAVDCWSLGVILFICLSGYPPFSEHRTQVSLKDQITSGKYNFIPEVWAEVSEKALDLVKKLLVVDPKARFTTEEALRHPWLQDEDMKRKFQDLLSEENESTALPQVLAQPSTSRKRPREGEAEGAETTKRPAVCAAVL
CSNK1G1, sequence (Q9HCP0 whole entry): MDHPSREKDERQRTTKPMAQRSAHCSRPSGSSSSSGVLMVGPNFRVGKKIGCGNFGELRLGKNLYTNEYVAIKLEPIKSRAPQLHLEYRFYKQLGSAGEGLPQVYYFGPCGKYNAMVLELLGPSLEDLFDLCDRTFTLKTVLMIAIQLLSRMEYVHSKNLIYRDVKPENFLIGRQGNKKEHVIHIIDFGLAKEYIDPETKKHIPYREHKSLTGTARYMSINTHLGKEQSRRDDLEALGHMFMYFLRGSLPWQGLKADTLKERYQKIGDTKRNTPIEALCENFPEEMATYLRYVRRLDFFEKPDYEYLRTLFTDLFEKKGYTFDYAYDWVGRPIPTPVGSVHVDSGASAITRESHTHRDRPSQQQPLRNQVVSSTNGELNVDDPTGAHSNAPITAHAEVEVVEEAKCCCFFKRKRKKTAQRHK
CSNK2A2, sequence (P19784 whole entry): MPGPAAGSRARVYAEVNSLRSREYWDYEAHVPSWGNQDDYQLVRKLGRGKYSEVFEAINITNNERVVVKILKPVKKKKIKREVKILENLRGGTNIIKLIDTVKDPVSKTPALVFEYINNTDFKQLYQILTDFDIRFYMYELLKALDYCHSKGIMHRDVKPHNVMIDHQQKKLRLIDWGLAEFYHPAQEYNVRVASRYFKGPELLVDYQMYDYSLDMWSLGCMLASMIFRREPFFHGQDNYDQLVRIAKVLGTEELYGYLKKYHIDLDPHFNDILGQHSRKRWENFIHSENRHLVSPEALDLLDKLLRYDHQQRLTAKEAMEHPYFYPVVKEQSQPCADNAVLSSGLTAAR
CAMK2A, sequence (Q9UQM7 whole entry): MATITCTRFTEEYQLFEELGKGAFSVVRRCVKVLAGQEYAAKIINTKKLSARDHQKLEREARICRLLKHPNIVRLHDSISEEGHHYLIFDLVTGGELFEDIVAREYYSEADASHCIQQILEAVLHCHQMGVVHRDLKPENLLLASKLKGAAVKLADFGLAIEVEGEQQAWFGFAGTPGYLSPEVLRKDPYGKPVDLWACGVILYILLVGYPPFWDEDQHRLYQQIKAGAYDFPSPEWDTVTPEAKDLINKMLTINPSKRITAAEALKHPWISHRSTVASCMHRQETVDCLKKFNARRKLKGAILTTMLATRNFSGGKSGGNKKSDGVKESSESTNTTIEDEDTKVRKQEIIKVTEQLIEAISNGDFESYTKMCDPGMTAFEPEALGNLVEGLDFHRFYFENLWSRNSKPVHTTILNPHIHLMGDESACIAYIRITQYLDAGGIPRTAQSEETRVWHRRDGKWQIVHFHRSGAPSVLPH
MAPK9, sequence (P45984 whole entry): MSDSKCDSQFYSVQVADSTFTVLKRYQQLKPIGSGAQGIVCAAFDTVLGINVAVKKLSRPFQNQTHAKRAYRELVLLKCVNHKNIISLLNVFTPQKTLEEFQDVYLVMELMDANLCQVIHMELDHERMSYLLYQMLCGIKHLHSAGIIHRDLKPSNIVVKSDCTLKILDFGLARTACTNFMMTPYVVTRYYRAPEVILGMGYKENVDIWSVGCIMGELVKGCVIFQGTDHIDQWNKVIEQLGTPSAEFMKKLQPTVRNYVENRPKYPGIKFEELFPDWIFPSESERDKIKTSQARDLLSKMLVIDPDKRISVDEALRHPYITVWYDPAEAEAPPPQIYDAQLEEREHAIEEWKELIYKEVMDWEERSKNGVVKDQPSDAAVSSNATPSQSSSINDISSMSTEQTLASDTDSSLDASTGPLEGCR
CDKL1, sequence (Q00532 whole entry): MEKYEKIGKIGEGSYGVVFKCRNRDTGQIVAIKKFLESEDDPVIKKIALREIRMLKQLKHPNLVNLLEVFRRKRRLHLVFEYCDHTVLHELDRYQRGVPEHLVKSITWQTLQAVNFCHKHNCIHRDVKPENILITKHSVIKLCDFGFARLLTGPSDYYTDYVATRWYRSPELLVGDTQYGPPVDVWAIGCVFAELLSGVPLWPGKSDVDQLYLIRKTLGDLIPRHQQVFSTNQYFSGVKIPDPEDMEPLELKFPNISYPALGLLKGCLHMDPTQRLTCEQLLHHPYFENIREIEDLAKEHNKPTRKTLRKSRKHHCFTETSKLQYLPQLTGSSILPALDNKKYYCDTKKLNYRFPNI
ZAK, sequence (Q9NYL2 whole entry): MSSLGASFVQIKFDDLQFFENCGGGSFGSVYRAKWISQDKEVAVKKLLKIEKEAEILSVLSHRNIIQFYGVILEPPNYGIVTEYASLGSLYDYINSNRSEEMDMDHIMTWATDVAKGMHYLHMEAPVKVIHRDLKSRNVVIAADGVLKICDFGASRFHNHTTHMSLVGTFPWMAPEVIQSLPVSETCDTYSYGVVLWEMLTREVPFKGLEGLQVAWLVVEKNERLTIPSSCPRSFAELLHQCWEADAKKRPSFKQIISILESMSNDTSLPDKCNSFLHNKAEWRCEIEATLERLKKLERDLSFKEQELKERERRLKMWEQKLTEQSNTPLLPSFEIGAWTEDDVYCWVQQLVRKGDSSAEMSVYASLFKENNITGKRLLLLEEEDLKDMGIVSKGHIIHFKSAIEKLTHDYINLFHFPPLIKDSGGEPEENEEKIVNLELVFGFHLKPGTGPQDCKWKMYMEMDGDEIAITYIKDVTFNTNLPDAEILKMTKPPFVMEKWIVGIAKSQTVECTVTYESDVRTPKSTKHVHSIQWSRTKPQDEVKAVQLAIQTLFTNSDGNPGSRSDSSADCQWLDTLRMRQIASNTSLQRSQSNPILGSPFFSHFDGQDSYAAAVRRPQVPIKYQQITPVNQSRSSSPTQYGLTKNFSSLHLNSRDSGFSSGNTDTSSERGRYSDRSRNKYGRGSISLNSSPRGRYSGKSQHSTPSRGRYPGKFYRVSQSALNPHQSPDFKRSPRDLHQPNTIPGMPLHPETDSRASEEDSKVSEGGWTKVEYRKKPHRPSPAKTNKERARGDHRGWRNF
PAK7, sequence (Q9P286 whole entry): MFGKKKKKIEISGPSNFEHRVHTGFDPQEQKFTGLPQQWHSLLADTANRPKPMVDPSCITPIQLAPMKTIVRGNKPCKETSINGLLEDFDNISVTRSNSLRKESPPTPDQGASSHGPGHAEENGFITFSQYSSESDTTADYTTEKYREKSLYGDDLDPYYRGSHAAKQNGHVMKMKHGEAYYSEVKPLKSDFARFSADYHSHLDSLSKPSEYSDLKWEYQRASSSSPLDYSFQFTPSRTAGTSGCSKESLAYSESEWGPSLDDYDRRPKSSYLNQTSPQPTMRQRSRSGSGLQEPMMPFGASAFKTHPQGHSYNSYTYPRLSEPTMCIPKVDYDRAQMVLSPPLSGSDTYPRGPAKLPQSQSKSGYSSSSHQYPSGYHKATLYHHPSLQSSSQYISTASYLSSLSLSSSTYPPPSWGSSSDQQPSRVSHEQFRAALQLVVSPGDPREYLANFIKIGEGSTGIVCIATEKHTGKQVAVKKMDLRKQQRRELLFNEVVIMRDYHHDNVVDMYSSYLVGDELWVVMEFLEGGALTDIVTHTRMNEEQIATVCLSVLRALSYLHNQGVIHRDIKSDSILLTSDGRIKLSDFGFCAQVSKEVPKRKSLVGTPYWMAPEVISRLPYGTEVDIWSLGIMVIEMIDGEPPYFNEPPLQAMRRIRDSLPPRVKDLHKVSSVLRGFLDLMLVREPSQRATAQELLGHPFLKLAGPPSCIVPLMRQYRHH
FES, sequence (P07332 whole entry): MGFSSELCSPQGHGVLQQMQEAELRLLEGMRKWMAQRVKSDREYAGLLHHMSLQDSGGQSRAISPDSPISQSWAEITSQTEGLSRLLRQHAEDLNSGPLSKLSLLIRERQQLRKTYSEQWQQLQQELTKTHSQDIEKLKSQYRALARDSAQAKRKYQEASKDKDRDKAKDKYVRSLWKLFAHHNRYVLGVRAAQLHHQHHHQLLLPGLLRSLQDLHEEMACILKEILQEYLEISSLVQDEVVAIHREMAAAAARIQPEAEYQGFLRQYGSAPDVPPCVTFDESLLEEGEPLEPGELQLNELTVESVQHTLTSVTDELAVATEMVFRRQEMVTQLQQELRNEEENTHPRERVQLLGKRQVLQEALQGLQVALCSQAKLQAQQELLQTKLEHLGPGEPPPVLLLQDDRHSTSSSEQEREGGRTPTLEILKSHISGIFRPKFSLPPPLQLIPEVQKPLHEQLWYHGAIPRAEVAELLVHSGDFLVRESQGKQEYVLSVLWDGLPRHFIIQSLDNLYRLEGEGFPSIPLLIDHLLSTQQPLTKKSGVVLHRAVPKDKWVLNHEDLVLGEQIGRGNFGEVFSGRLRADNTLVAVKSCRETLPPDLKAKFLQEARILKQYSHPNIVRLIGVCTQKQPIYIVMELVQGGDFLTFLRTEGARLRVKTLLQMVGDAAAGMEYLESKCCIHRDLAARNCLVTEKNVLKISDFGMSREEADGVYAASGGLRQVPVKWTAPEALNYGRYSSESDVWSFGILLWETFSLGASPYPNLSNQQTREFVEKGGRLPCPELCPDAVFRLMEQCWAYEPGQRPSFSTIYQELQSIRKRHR

- ΔTm inhibitor 2 (ZAK): -0.3 °C
- ΔTm inhibitor 2 (PIM3): 4.9 °C
- ΔTm inhibitor 2 (MYLK4): 0.9 °C
- ΔTm inhibitor 2 (CHEK2): 0.1 °C
- ΔTm inhibitor 2 (STK17B): 1.0 °C
- ΔTm inhibitor 2 (CSNK2A2): 2.6 °C
- ΔTm inhibitor 2 (FES): -0.1 °C
- ΔTm inhibitor 2 (PAK7): -0.1 °C
- ΔTm inhibitor 2 (MAPK8): 0.7 °C
- ΔTm inhibitor 2 (PKN1): -0.5 °C
- ΔTm inhibitor 2 (CSNK1G1): 3.2 °C
- ΔTm inhibitor 2 (STK39): 0.5 °C
- ΔTm inhibitor 2 (CAMK2A): -0.1 °C
- ΔTm inhibitor 2 (CAMK1G): -0.1 °C
- ΔTm inhibitor 2 (CDKL1): 0.4 °C
- ΔTm inhibitor 2 (PKMYT1): -0.6 °C
- ΔTm inhibitor 2 (MAPK9): 0.4 °C
Structure (SMILES): CCN1/C(=C/C(C)=O)Sc2ccc(OC)cc21 [compound 2, TG003]

- ΔTm inhibitor 4 (ZAK): 0.3 °C
- ΔTm inhibitor 4 (PIM3): 5.4 °C
- ΔTm inhibitor 4 (MYLK4): 3.9 °C
- ΔTm inhibitor 4 (CHEK2): 0.5 °C
- ΔTm inhibitor 4 (STK17B): 6.9 °C
- ΔTm inhibitor 4 (CSNK2A2): 0.9 °C
- ΔTm inhibitor 4 (FES): 0.3 °C
- ΔTm inhibitor 4 (PAK7): 0.6 °C
- ΔTm inhibitor 4 (MAPK8): 1.0 °C
- ΔTm inhibitor 4 (PKN1): 0.4 °C
- ΔTm inhibitor 4 (CSNK1G1): 1.0 °C
- ΔTm inhibitor 4 (STK39): 0.0 °C
- ΔTm inhibitor 4 (CSNK1G3): 1.2 °C
- ΔTm inhibitor 4 (CAMK2A): 0.1 °C
- ΔTm inhibitor 4 (ACVR1B): 1.1 °C
- ΔTm inhibitor 4 (CAMK1G): 0.3 °C
- ΔTm inhibitor 4 (CDKL1): 0.8 °C
- ΔTm inhibitor 4 (PKMYT1): 0.1 °C
- ΔTm inhibitor 4 (MAPK9): 0.9 °C
Structure (SMILES): Nc1nccc(-c2ccc3noc(-c4ccc(Cl)cc4)c3c2)n1 [compound 4, K00972]

- ΔTm inhibitor 1 (ZAK): 1.4 °C
- ΔTm inhibitor 1 (PIM3): 6.8 °C
- ΔTm inhibitor 1 (MYLK4): 5.8 °C
- ΔTm inhibitor 1 (CHEK2): 0.8 °C
- ΔTm inhibitor 1 (STK17B): 4.2 °C
- ΔTm inhibitor 1 (CSNK2A2): 3.3 °C
- ΔTm inhibitor 1 (FES): 0.6 °C
- ΔTm inhibitor 1 (PAK7): 0.4 °C
- ΔTm inhibitor 1 (PKN1): 1.7 °C
- ΔTm inhibitor 1 (CSNK1G1): 1.7 °C
- ΔTm inhibitor 1 (STK39): 0.8 °C
- ΔTm inhibitor 1 (CSNK1G3): 0.3 °C
- ΔTm inhibitor 1 (CAMK2A): 0.5 °C
- ΔTm inhibitor 1 (ACVR1B): 9.1 °C
- ΔTm inhibitor 1 (CAMK1G): 0.6 °C
- ΔTm inhibitor 1 (CDKL1): 0.2 °C
- ΔTm inhibitor 1 (PKMYT1): 0.9 °C
- ΔTm inhibitor 1 (MAPK9): 0.8 °C
Structure (SMILES): CC(=O)c1cccc(-c2cnc3ccc(NCC4CC4)nn23)c1 [compound 1, K00135]
